Bridge positions count the residues as written; N and C are the ends. Square brackets hold non-standard residues; d marks the D form. Ends that are not written are not given here. Peptide text beside a SMILES is read from it. * marks the point of attachment. Phe(3,5-F2) = N[C@@H](Cc1cc(F)cc(F)c1)C(=O)O; Pro(4R-Me) = C[C@H]1CN[C@H](C(=O)O)C1; Propanoyl(3-cHex) = O=C(CCC1CCCCC1)*; NMeA = CN[C@@H](C)C(=O)O
How the values were obtained:
SaClpP [1] = target: T1, SaClpP (Staphylococcus aureus, UniProt Q2G036); assay: Peptide (Suc-LY-AMC) degradation by SaClpP in destabilizing Tris buffer pH 8; format: biochemical, S. aureus; parameters: Strep-tag (C); made in house; host or cells: E. coli BL21 (DE3)
T1 sequence (Q2G036 1-195): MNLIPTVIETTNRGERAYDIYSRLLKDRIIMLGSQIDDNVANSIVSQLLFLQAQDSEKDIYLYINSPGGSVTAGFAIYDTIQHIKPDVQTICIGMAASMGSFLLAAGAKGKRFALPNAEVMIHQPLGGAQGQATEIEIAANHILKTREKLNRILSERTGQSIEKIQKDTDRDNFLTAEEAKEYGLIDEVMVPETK
Text: (§1) In order to assess the different MccJ25 variants, we first chose S. aureus ClpP (SaClpP) as a model peptidase and performed in vitro degradation assays with the fluorogenic model peptide substrate Suc-LY-AMC. […] To investigate whether the MccJ25 variants can exert a stabilizing effect on the oligomeric structure of tetradecameric SaClpP, we conducted peptide degradation assays under destabilizing conditions employing a Tris buffer at pH 8.
This experimental setup was then used to differentiate the MccJ25 variants regarding their effect on ClpP stability. […] The apparent affinity constant was deduced from enzyme activity assays and represents the effector molecule concentration at half maximal stimulation of enzyme activity (the lower the apparent affinity constant, the higher the affinity). To exclude that 12IGF serves as a SaClpP substrate, we incubated a mixture of SaClpP and 12IGF under assay conditions for up to 260 min.
(§2) Peptide degradation assays were performed in black flat-bottom 96-well plates with a total reaction volume of 100 μL and reaction temperatures of 32 °C and 37 °C for SaClpP and BsClpP, respectively. Stock solutions of ADEP2 and MccJ25 WT or variants were dissolved in DMSO and pre-diluted to 100× of the final concentration. Accordingly, 1 μL of the respective stock solution was placed at the bottom of the wells. […] 50 μL of a 2× enzyme solution (final assay concentration: 1 μM) in activity buffer was added to the plate and incubated for 15 min at 32 °C and 37 °C for SaClpP and BsClpP activity assays, respectively. The enzyme reaction was started by addition of 49 μL of a solution of the fluorogenic model peptide substrate Suc-Leu-Tyr-AMC in activity buffer at a final concentration of 200 μM. For SaClpP assays, the activity buffer was comprised of 100 mM NaCl and 100 mM HEPES at pH 7. BsClpP activity buffer (50 mM Tris-HCl, 25 mM MgCl2, 200 mM KCl, 2 mM DTT, pH 8) was used in BsClpP assays as well as in SaClpP experiments, where the buffer composition was supposed to lead to oligomeric breakdown of the SaClpP tetradecamer to allow testing the activity retaining effect of ClpP agonists. The fluorescence read-out was measured using a Tecan (Crailsheim, Germany) M200Pro plate reader (excitation/emission: 380/460 nm) every 30–60 s for 1 h. Enzyme velocity was determined by linear regression of the initial segment of the fluorescence-time plot in GraphPad Prism 5 (GraphPad Software, San Diego, CA, USA). All assays were performed in triplicate and repeated at least two times.

SaClpP [2] = target: T1, SaClpP; assay: Peptide (Suc-LY-AMC) degradation by SaClpP in HEPES buffer pH 7; format: biochemical, S. aureus; parameters: Strep-tag (C); made in house; host or cells: E. coli BL21 (DE3); conditions: Figure 4A
Experimental: as §1
Peptide degradation assays were performed in black flat-bottom 96-well plates with a total reaction volume of 100 μL and reaction temperatures of 32 °C and 37 °C for SaClpP and BsClpP, respectively. Stock solutions of ADEP2 and MccJ25 WT or variants were dissolved in DMSO and pre-diluted to 100× of the final concentration. Accordingly, 1 μL of the respective stock solution was placed at the bottom of the wells. […] 50 μL of a 2× enzyme solution (final assay concentration: 1 μM) in activity buffer was added to the plate and incubated for 15 min at 32 °C and 37 °C for SaClpP and BsClpP activity assays, respectively. […] The fluorescence read-out was measured using a Tecan (Crailsheim, Germany) M200Pro plate reader (excitation/emission: 380/460 nm) every 30–60 s for 1 h. Enzyme velocity was determined by linear regression of the initial segment of the fluorescence-time plot in GraphPad Prism 5 (GraphPad Software, San Diego, CA, USA). […]

SaClpP [3] = target: T1, SaClpP; assay: Analytical gel filtration, SaClpP oligomeric state; parameters: Strep-tag (C); made in house; host or cells: E. coli BL21 (DE3); conditions: Superdex 200, Tris buffer pH 8, representative experiment from three repetitions
SaClpP [4] = target: T1, SaClpP; assay: biochemical; parameters: Strep-tag (C); made in house; host or cells: E. coli BL21 (DE3)
Experimental: Casein degradation assays were performed analogous to peptide degradation assays. Fluorescein-labelled casein (FITC-casein) was employed at final concentrations of 20 μM in the respective activity buffers (see peptide degradation assay). 1 μL of a 100× stock solution of ADEP2 in DMSO was placed at the bottom of the wells followed by the addition of a 2× SaClpP or BsClpP enzyme solution (1 μM final concentration, unless noted otherwise). The mixture was incubated at 32 °C or 37 °C for 15 min and then the reaction was started by the addition of a 2× FITC-casein solution in the corresponding activity buffer. The fluorescence read-out was measured using a Tecan (Crailsheim, Germany) M200Pro plate reader employing an excitation wavelength of 485 nm and an emission wavelength of 535 nm. Enzyme velocity was acquired by linear regression of the initial segment of the fluorescence graph and plotted against ADEP2 concentration. All assays were performed in duplicate or triplicate.

SaClpP [5] = target: T1, SaClpP; parameters: Strep-tag (C); made in house; host or cells: E. coli BL21 (DE3); conditions: ADEP2 vs natural product ADEP1; ref not given; cited from earlier work
Text: Figure 3 Grafting of the hydrophobic tripeptide binding motifs onto the MccJ25 lasso peptide scaffold. (A) Schematic of the ClpP tetradecamer and the complete Clp protease complex, i.e., ClpP in concert with ClpX. The interaction between ClpP and the ClpX ATPase occurs between protruding flexible loops of ClpX, carrying the conserved tripeptide motif (L/I/V)-G-(F/L), and the H-pockets of ClpP. The H-pockets are located between two adjacent monomers of ClpP. In the ClpXP complexes of S. aureus and B. subtilis, which we used for our biochemical assays, the respective motif is IGF. (B) The IGF tr ...

[6] = target: B. subtilis ClpP (Bacillus subtilis) (UniProt P80244); assay: SEC; BsClpP purified under specific buffer conditions that favor tetradecamer assembly; tetradecameric fraction collected from a gel filtration column (buffers in ref. 43)
BsClpP = target: T2, BsClpP (Bacillus subtilis, UniProt P80244); assay: BsClpP peptidase activity, preparation not specified; format: biochemical, B. subtilis; conditions: summary in discussion
T2 construct: His-tag (C); made in house; host or cells: E. coli BL21 (DE3)
T2 sequence (P80244 whole entry): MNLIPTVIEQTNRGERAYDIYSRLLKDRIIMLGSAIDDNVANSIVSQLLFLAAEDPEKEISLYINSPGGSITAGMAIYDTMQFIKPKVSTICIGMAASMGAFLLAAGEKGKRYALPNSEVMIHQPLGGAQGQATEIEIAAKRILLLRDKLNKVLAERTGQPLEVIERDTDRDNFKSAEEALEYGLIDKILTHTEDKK
Experimental: as §2

[7] = cited from earlier work
Text: MccJ25 is exceptionally stable, even for lasso peptide standards.

Enterobacteriaceae = conditions: cited from earlier work
Text: (§3) Microcin J25 (MccJ25) is the most well-studied lasso peptide (Figure 2A). […] MccJ25 enters its target cells through hijacking the TonB-dependent siderophore receptor FhuA [8, 19, 20] which explains its narrow activity spectrum. MccJ25 originates from Escherichia coli AY25 [13] and thus can be produced very well heterolo ...

[8] = system: Gram-negative RNA polymerase; conditions: blocking of NTP uptake channel; cited from earlier work
Text: as §3

thermolysin = conditions: cleavage e.g. between Phe10 and Val11; gas phase and solution; cited from earlier work

C[C@@H]1C[C@H]2C(=O)OC[C@H](NC(=O)[C@H](Cc3cc(F)cc(F)c3)NC(=O)CCC3CCCCC3)C(=O)N3CCC[C@H]3C(=O)N(C)[C@@H](C)C(=O)N[C@@H](C)C(=O)N2C1 [ADEP2] ({Propanoyl(3-cHex)}-[Phe(3,5-F2)]SP[NMeA]A[Pro(4R-Me)]; ester 2-C)
SaClpP peptidase activity retained in the presence of ADEP2 (SaClpP [1]; Tris buffer pH 8, Figure 4A): a substantial extent of the original activity (observed in the favorable HEPES buffer at pH 7) was retained in the presence of ADEP2 | SaClpP peptidase activity enhancement (SaClpP [2]): enhanced weakly | SaClpP tetradecamer integrity (SaClpP [3]): Inactivation by oligomeric breakdown in Tris buffer at pH 8 can be circumvented by the addition of ADEP2 | EC50 (SaClpP [4]): 304 ± 179 nM | affinity for SaClpP (SaClpP [5]): increased affinity for SaClpP

B. subtilis ClpP (from UniProt P80244 1-197) (enzyme)
stoichiometry N [6]: 14

microcin J25 (GGAGHVPEYFVGIGTPISFYG; lactam N-8; also: lasso topology, tail threaded through ring) [WT MccJ25, wild type lasso peptide from Escherichia coli AY25]
effect on BsClpP activity (BsClpP): neither WT MccJ25 nor several of the other mutated variants constructed in this study affected either of the ClpPs | thermal stability [7]: withstand autoclaving at 120 °C | antibiotic activity (Enterobacteriaceae): exhibits antibiotic activity against Enterobacteriaceae | RNA polymerase inhibition [8]: inhibition of the Gram-negative RNA polymerase | stability of [2]rotaxane after loop hydrolysis by thermolysin (thermolysin): does not cause ring and tail to dissociate | SaClpP peptidase activity retained in Tris buffer (SaClpP [1]; Tris buffer pH 8, 46 μM lasso peptide (Figure 4C), 32 °C, three independent experiments): only the three variants carrying the canonical tripeptide motif at positions 12–14 were able to retain SaClpP activity in Tris buffer | effect on SaClpP activity (SaClpP [1]; summary in discussion): neither WT MccJ25 nor several of the other mutated variants constructed in this study affected either of the ClpPs

Reference: publication PMC8745299, “Generation of Lasso Peptide-Based ClpP Binders” (International Journal of Molecular Sciences, 2021)
